Key:
[1] = test system: apolipoprotein B mRNA; assay: ob/ob mice (Example 50): apolipoprotein B mRNA levels in liver; assay type: in vivo, mouse; conditions: liver, high fat high cholesterol diet, 50 mg/kg i.p. twice a week, six weeks
Method: (§1) Ob/ob mice receiving a high fat, high cholesterol diet (60% kcal fat supplemented with 0.15% cholesterol) were treated with one of several oligonucleotides to evaluate their effect on apolipoprotein B-related phenotypic endpoints in ob/ob mice. After overnight fasting, mice from each group were dosed intraperitoneally twice a week with 50 mg/kg of ISIS 147483 (SEQ ID NO: 79), or 147764 (SEQ ID NO: 109), or the controls ISIS 116847 (SEQ ID NO: 857), or 141923 (SEQ ID NO: 858), or saline for six weeks. At study termination and forty eight hours after the final injections, animals were sacrificed and evaluated for target mRNA levels in liver, cholesterol and triglyceride levels, liver enzyme levels, serum glucose levels, and PTEN levels.

[2] = ob/ob mice (Example 50): cholesterol, lipid, triglyceride, liver enzyme and glucose levels; assay type: in vivo, mouse; conditions: high fat high cholesterol diet, 50 mg/kg i.p. twice a week, six weeks
Method: as §1

[3] = test system: PTEN; assay: ob/ob mice (Example 50): PTEN levels; assay type: in vivo, mouse; conditions: high fat high cholesterol diet, 50 mg/kg i.p. twice a week, six weeks
Method: as §1

[4] = test system: apolipoprotein B mRNA; assay: High fat fed mice, time-dependent effects and after cessation of dosing (Example 51): apolipoprotein B mRNA in liver; assay type: in vivo, mouse; conditions: liver, 50 mg/kg i.p. twice weekly
Method: (§2) In a further embodiment of the invention, the inhibition of apolipoprotein B mRNA in mice was compared to liver oligonucleotide concentration, total cholesterol, LDL-cholesterol and HDL-cholesterol. Male C57Bl/6 mice receiving a high fat diet (60% fat) were evaluated over the course of 6 weeks for the effects of treatment with twice weekly intraperitoneal injections of 50 mg/kg ISIS 147764 (SEQ ID NO: 109) or 50 mg/kg of the control oligonucleotide ISIS 141923 (SEQ ID NO: 858). Control animals received saline treatment. Animals were sacrificed after 2 days, 1, 2, 4 and 6 weeks of treatment. Each treatment group at each time point consisted of 8 mice.
(§3) Target expression in liver was measured by real-time PCR as described by other examples herein and is expressed as percent inhibition relative to saline treated mice. Total, LDL- and HDL-cholesterol levels were measured by routine clinical analysis using an Olympus Clinical Analyzer (Olympus America Inc., Melville, N.Y.) and are presented in mg/dL. Results from saline-treated animals are shown for comparison. Intact oligonucleotide in liver tissue was measured by capillary gel electrophoresis and is presented as micrograms of oligonucleotide per gram of tissue.
(§4) The oligonucleotide treatments described in this example were duplicated to investigate the extent to which effects of ISIS 147764 persist following cessation of treatment. Mice were treated as described, and sacrificed 1, 2, 4, 6 and 8 weeks following the cessation of oligonucleotide treatment.

[5] = High fat fed mice (Example 51): intact oligonucleotide in liver tissue by capillary gel electrophoresis; assay type: in vivo, mouse; conditions: 50 mg/kg i.p. twice weekly
Method: as §2, §3, §4

[6] = High fat fed mice (Example 51): total, LDL- and HDL-cholesterol levels; assay type: in vivo, mouse; conditions: 50 mg/kg i.p. twice weekly
Method: as §2, §3, §4

[7] = test system: Cynomolgous monkey apolipoprotein B mRNA; assay: Apolipoprotein B mRNA in primary Cynomolgous monkey hepatocytes, real-time PCR; assay type: cell-based; conditions: cynomolgous monkey primary hepatocytes; 10, 50, 150 or 300 nM
Outline: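 Primary cynomolgus hepatocytes treated with antisense oligonucleotides at 10, 50, 150 or 300 nM (some sets 10–150 nM) for 24 or 48 h, depending on the set. mRNA quantified by real-time PCR using human apoB and GAPDH primers/probes. Values are percent inhibition normalized to untreated cells, averaged over 2–6 experiments.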

[8] = test system: apolipoprotein B protein; assay: Apolipoprotein B protein secreted from primary Cynomolgous monkey hepatocytes, ELISA; assay type: cell-based; conditions: primary Cynomolgous hepatocytes; 150 and 300 nM
Method: Apolipoprotein B protein secreted from primary Cynomolgous hepatocytes treated with 150 and 300 nM of oligonucleotide was measured by ELISA using an apolipoprotein B protein specific kit (ALerCHEK Inc., Portland, Me.). Each result represents the average of 3 experiments.
Apolipoprotein B protein secreted primary Cynomolgous hepatocytes treated with 50 and 150 nM of ISIS 315089 and ISIS 281625 was measured by ELISA using an apolipoprotein B protein specific kit (ALerCHEK Inc., Portland, Me.). Each result represents the average of 3 experiments.
Apolipoprotein B protein secreted from primary Cynomolgous hepatocytes treated with 50 and 150 nM of ISIS 271009 and ISIS 301027 was measured by ELISA using an apolipoprotein B protein specific kit (ALerCHEK Inc., Portland, Me.). Each result represents the average of 3 experiments.

[9] = test system: apolipoprotein B protein; assay: Apolipoprotein B protein in primary Cynomolgous monkey hepatocytes, immunoblot; assay type: cell-based
Method: Additionally, protein was isolated from oligonucleotide-treated primary Cynomolgous monkey hepatocytes and subjected to immunoblot analysis to further assess apolipoprotein B protein expression. Immunoblotting was performed as described herein, using an antibody to human apolipoprotein B protein (US Biologicals, Swampscott, Mass.).

[10] = high fat fed male C57Bl/6 mice, treatment period 1 week
[11] = high fat fed male C57Bl/6 mice, treatment period 2 weeks
[12] = high fat fed male C57Bl/6 mice, treatment period 4 weeks
[13] = high fat fed male C57Bl/6 mice, treatment period 6 weeks
[14] = high fat fed male C57Bl/6 mice, treatment period 2 days
[15] = high fat fed mice, 1 week after cessation of dosing
[16] = high fat fed mice, 2 weeks after cessation of dosing
[17] = high fat fed mice, 4 weeks after cessation of dosing
[18] = high fat fed mice, 6 weeks after cessation of dosing
[19] = high fat fed mice, 8 weeks after cessation of dosing

## 141923 (CCTTCCCTGAAGGTTCCTCC; listed as DNA, chemistry not given here) [compound 141923]
[1]
  mRNA % control ApoB: 100.0 % control
[2]
  Glucose: 328.5 mg/dL
  Lipoproteins CHOL: 646.3 mg/dL
  Lipoproteins TRIG: 196.5 mg/dL
  Liver Enzymes ALT: 701.7 IU/L
  Liver Enzymes AST: 329.3 IU/L
[3]
  mRNA % control PTEN: 113.6 % control
[4]; [10]
  % Inhibition apolipoprotein B mRNA: 4%
[4]; [11]
  % Inhibition apolipoprotein B mRNA: 7%
[4]; [12]
  % Inhibition apolipoprotein B mRNA: 0%
[4]; [13]
  % Inhibition apolipoprotein B mRNA: 0%
[4]; [14]
  % Inhibition apolipoprotein B mRNA: 9%
[4]; [15]
  % Inhibition apolipoprotein B mRNA: 15%
[4]; [16]
  % Inhibition apolipoprotein B mRNA: 2%
[4]; [17]
  % Inhibition apolipoprotein B mRNA: 7%
[4]; [18]
  % Inhibition apolipoprotein B mRNA: 11%
[4]; [19]
  % Inhibition apolipoprotein B mRNA: 7%
[5]; [10]
  Intact oligonucleotide: 61 µg/g
[5]; [11]
  Intact oligonucleotide: 152 µg/g
[5]; [12]
  Intact oligonucleotide: 261 µg/g
[5]; [13]
  Intact oligonucleotide: 631 µg/g
[5]; [14]
  Intact oligonucleotide: 58 µg/g
[5]; [15]
  Intact oligonucleotide: 297 µg/g
[5]; [16]
  Intact oligonucleotide: 250 µg/g
[5]; [17]
  Intact oligonucleotide: 207 µg/g
[5]; [18]
  Intact oligonucleotide: 212 µg/g
[5]; [19]
  Intact oligonucleotide: 128 µg/g
[6]; [10]
  HDL-cholesterol: 116 mg/dL
  LDL-cholesterol: 27 mg/dL
  Total cholesterol: 146 mg/dL
[6]; [11]
  HDL-cholesterol: 122 mg/dL
  LDL-cholesterol: 27 mg/dL
  Total cholesterol: 152 mg/dL
[6]; [12]
  HDL-cholesterol: 128 mg/dL
  LDL-cholesterol: 38 mg/dL
  Total cholesterol: 169 mg/dL
[6]; [13]
  HDL-cholesterol: 166 mg/dL
  LDL-cholesterol: 56 mg/dL
  Total cholesterol: 225 mg/dL
[6]; [14]
  HDL-cholesterol: 70 mg/dL
  LDL-cholesterol: 8 mg/dL
  Total cholesterol: 99 mg/dL
[6]; [15]
  HDL-cholesterol: 121 mg/dL
  LDL-cholesterol: 24 mg/dL
  Total cholesterol: 158 mg/dL
[6]; [16]
  HDL-cholesterol: 105 mg/dL
  LDL-cholesterol: 24 mg/dL
  Total cholesterol: 139 mg/dL
[6]; [17]
  HDL-cholesterol: 135 mg/dL
  LDL-cholesterol: 32 mg/dL
  Total cholesterol: 185 mg/dL
[6]; [18]
  HDL-cholesterol: 136 mg/dL
  LDL-cholesterol: 32 mg/dL
  Total cholesterol: 186 mg/dL
[6]; [19]
  HDL-cholesterol: 108 mg/dL
  LDL-cholesterol: 24 mg/dL
  Total cholesterol: 151 mg/dL

## GCCTCAGTCTGCTTTACACC (gapmer: ten 2'-deoxy gap, five-nucleotide wings, wing chemistry not given here) [ISIS 326358]
[7]
  inhibition of apolipoprotein B mRNA expression: in a dose- and time-dependent manner
[8]
  secretion of apolipoprotein B protein (ELISA): decrease
[9]
  apolipoprotein B expression (immunoblot): substantial reduction
